Measured values published in ChEMBL document CHEMBL1201862, “PubChem BioAssay data set” (2004).
Where “and” joins values, the source holds several entries; their conditions need not be identical. Identical values can stand only once.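 Cultured in 96-well plates, cells were exposed to test compound for 48 hours across five concentrations. GI50 marks 50% less growth.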 Calls of active or inactive are those of the source. Rule as the data show it: active = GI50 up to about 1.1 µM and inactive = higher.

Columns and labels:
Test in all cases: DTP human tumour cell line panel, 48 h
[1] = test system: IGROV-1
[2] = test system: CCRF-CEM
[3] = test system: ACHN
[4] = test system: Malme-3M
[5] = test system: SNB-75
[6] = test system: NCI-H522
[7] = test system: RXF 631
[8] = test system: TK-10
[9] = test system: XF498
[10] = test system: DMS-273
[11] = test system: SK-MEL-2
[12] = test system: M14
[13] = test system: SN12C
[14] = test system: HT-29
[15] = test system: SK-MEL-5
[16] = test system: U-251
[17] = test system: LXFL 529
[18] = test system: NCI-H226
[19] = test system: MOLT-4
[20] = test system: LOX IMVI
[21] = test system: HCT-116
[22] = test system: SK-MEL-28
[23] = test system: K562
[24] = test system: RXF 393
[25] = test system: OVCAR-8
[26] = test system: SK-OV-3
[27] = test system: DMS-114
[28] = test system: SF-268
[29] = test system: M19-MEL
[30] = test system: OVCAR-3
[31] = test system: CAKI-1
[32] = test system: HOP-92
[33] = test system: UACC-257
[34] = test system: COLO 205
[35] = test system: DLD-1
[36] = test system: OVCAR-4
[37] = test system: NCI-H23
[38] = test system: HCT-15
[39] = test system: HOP-62
[40] = test system: UACC-62
[41] = test system: 786-0
[42] = test system: A549
[43] = test system: HL-60
[44] = test system: UO-31
[45] = test system: RPMI-8226
[46] = test system: SNB-19
[47] = test system: A498
[48] = test system: KM-20L2
[49] = test system: HOP-18
[50] = test system: KM12
[51] = test system: NCI-H460
[52] = test system: SW-620
[53] = test system: OVCAR-5
[54] = test system: SR
[55] = test system: SF-539
[56] = test system: EKVX
[57] = test system: HCC 2998
[58] = test system: SF-295
[59] = test system: MDA-MB-231
[60] = test system: BT-549
[61] = test system: PC-3
[62] = test system: MDA-MB-435
[63] = test system: Hs-578T
[64] = test system: DU-145
[65] = test system: SNB-78
[66] = test system: T47D
[67] = test system: MCF7
[68] = test system: MDA-N

## COc1cc2c(cc1OC)C(C(=O)c1cccc(OC)c1OC)C(=O)N(C)CC2 (stereo not drawn)
[1]
  GI50: > 100 µM (inactive)
[2]
  GI50: > 100 µM (inactive)
[3]
  GI50: > 100 µM (inactive)
[4]
  GI50: > 100 µM (inactive)
[5]
  GI50: > 100 µM (inactive)
[6]
  GI50: > 100 µM (inactive)
[7]
  GI50: > 100 µM (inactive)
[8]
  GI50: > 100 µM (inactive)
[9]
  GI50: 63.4 µM (inactive)
[10]
  GI50: > 100 µM (inactive)
[11]
  GI50: > 100 µM (inactive)
[12]
  GI50: > 100 µM (inactive)
[13]
  GI50: > 100 µM (inactive)
[14]
  GI50: > 100 µM (inactive)
[15]
  GI50: > 100 µM (inactive)
[16]
  GI50: > 100 µM (inactive)
[17]
  GI50: > 100 µM (inactive)
[18]
  GI50: > 100 µM (inactive)
[19]
  GI50: > 100 µM (inactive)
[20]
  GI50: > 100 µM (inactive)
[21]
  GI50: > 100 µM (inactive)
[22]
  GI50: > 100 µM (inactive)
[23]
  GI50: > 100 µM (inactive)
[24]
  GI50: > 100 µM (inactive)
[25]
  GI50: > 100 µM (inactive)
[26]
  GI50: > 100 µM (inactive)
[27]
  GI50: 56.5 µM (inactive)
[28]
  GI50: > 100 µM (inactive)
[29]
  GI50: > 100 µM (inactive)
[30]
  GI50: > 100 µM (inactive)
[31]
  GI50: > 100 µM (inactive)
[32]
  GI50: 65.5 µM (inactive)
[33]
  GI50: > 100 µM (inactive)
[34]
  GI50: > 100 µM (inactive)
[35]
  GI50: > 100 µM (inactive)
[36]
  GI50: > 100 µM (inactive)
[37]
  GI50: > 100 µM (inactive)
[38]
  GI50: > 100 µM
[39]
  GI50: > 100 µM (inactive)
[40]
  GI50: > 100 µM (inactive)
[41]
  GI50: > 100 µM (inactive)
[42]
  GI50: > 100 µM (inactive)
[43]
  GI50: > 100 µM (inactive)
[44]
  GI50: > 100 µM (inactive)
[45]
  GI50: > 100 µM (inactive)
[46]
  GI50: > 100 µM (inactive)
[47]
  GI50: > 100 µM (inactive)
[48]
  GI50: > 100 µM (inactive)
[49]
  GI50: > 100 µM (inactive)
[50]
  GI50: > 100 µM (inactive)
[51]
  GI50: > 100 µM (inactive)
[52]
  GI50: > 100 µM (inactive)

## Fc1cccc2cc3ccc4cccc5ccc(c12)c3c45
[1]
  GI50: > 100 µM (inactive)
[2]
  GI50: > 100 µM (inactive)
[3]
  GI50: > 100 µM (inactive)
[4]
  GI50: > 100 µM (inactive)
[5]
  GI50: > 100 µM (inactive)
[6]
  GI50: > 100 µM (inactive)
[7]
  GI50: > 100 µM (inactive)
[8]
  GI50: 0.721 µM (active)
[9]
  GI50: > 100 µM (inactive)
[10]
  GI50: 0.296 µM (active)
[12]
  GI50: > 100 µM (inactive)
[53]
  GI50: 7.4 µM (inactive)
[13]
  GI50: > 100 µM (inactive)
[14]
  GI50: > 100 µM (inactive)
[15]
  GI50: > 100 µM (inactive)
[54]
  GI50: 0.0146 µM (active)
[16]
  GI50: > 100 µM (inactive)
[17]
  GI50: > 100 µM (inactive)
[55]
  GI50: > 100 µM (inactive)
[18]
  GI50: 7.66 µM (inactive)
[56]
  GI50: 2.66 µM (inactive)
[19]
  GI50: > 100 µM (inactive)
[20]
  GI50: > 100 µM (inactive)
[21]
  GI50: > 100 µM (inactive)
[22]
  GI50: > 100 µM (inactive)
[23]
  GI50: > 100 µM (inactive)
[24]
  GI50: > 100 µM (inactive)
[25]
  GI50: > 100 µM (inactive)
[26]
  GI50: 0.771 µM (active)
[27]
  GI50: > 100 µM (inactive)
[57]
  GI50: 7.52 µM (inactive)
[28]
  GI50: > 100 µM (inactive)
[29]
  GI50: > 100 µM (inactive)
[30]
  GI50: > 100 µM (inactive)
[31]
  GI50: > 100 µM (inactive)
[33]
  GI50: > 100 µM (inactive)
[34]
  GI50: > 100 µM (inactive)
[35]
  GI50: 0.509 µM (active)
[36]
  GI50: > 100 µM (inactive)
[37]
  GI50: 1.63 µM (inactive)
[39]
  GI50: > 100 µM (inactive)
[40]
  GI50: > 100 µM (inactive)
[41]
  GI50: > 100 µM (inactive)
[42]
  GI50: > 100 µM (inactive)
[43]
  GI50: > 100 µM (inactive)
[44]
  GI50: > 100 µM (inactive)
[46]
  GI50: > 100 µM (inactive)
[47]
  GI50: > 100 µM (inactive)
[48]
  GI50: > 100 µM (inactive)
[49]
  GI50: 1.72 µM (inactive)
[58]
  GI50: > 100 µM (inactive)
[50]
  GI50: > 100 µM (inactive)
[52]
  GI50: > 100 µM (inactive)

## C/C=C(\CCC1NCCc2c1[nH]c1ccccc21)[Si](C)(C)C (stereo not drawn)
[4]
  GI50: 1.77 µM (inactive) and 1.21 µM (inactive)
[5]
  GI50: 5.97 µM (inactive) and 6.5 µM (inactive)
[59]
  GI50: 2.14 µM (inactive)
[60]
  GI50: 10.8 µM (inactive)
[7]
  GI50: 5.05 µM (inactive) and 7.28 µM (inactive)
[9]
  GI50: 1.41 µM (inactive) and 1.8 µM (inactive)
[61]
  GI50: 5.01 µM (inactive)
[62]
  GI50: 3.37 µM (inactive)
[63]
  GI50: 2.05 µM (inactive)
[13]
  GI50: 5.89 µM (inactive) and 3.32 µM (inactive)
[17]
  GI50: 1.78 µM (inactive) and 5.01 µM (inactive)
[18]
  GI50: 10.9 µM (inactive) and 7.76 µM (inactive)
[56]
  GI50: 14.7 µM (inactive) and 8.41 µM (inactive)
[19]
  GI50: 2.74 µM (inactive) and 4.35 µM (inactive)
[20]
  GI50: 2.28 µM (inactive) and 20.3 µM (inactive)
[23]
  GI50: 3.57 µM (inactive) and 6.67 µM (inactive)
[25]
  GI50: 4.16 µM (inactive) and 7.82 µM (inactive)
[64]
  GI50: 12.6 µM (inactive)
[26]
  GI50: 13.4 µM (inactive) and 10.1 µM (inactive)
[28]
  GI50: 11.2 µM (inactive) and 5.96 µM (inactive)
[65]
  GI50: 4.9 µM (inactive) and 9.31 µM (inactive)
[66]
  GI50: 2.22 µM (inactive)
[34]
  GI50: 14.3 µM (inactive) and 1.8 µM (inactive)
[35]
  GI50: 3.49 µM (inactive) and 6.24 µM (inactive)
[36]
  GI50: 3.03 µM (inactive) and 5.81 µM (inactive)
[38]
  GI50: 18.7 µM and 2.25 µM
[39]
  GI50: 11.9 µM (inactive) and 14.5 µM (inactive)
[67]
  GI50: 2.02 µM (inactive)
[40]
  GI50: 5.86 µM (inactive) and 5.27 µM (inactive)
[42]
  GI50: 10.1 µM (inactive) and 6.59 µM (inactive)
[68]
  GI50: 2.09 µM (inactive)
[47]
  GI50: 2.67 µM (inactive) and 6.5 µM (inactive)
[49]
  GI50: 6.79 µM (inactive) and 20.1 µM (inactive)
